# In patent US20150315211A1, “SMALL MOLECULES FOR THE MODULATION OF MCL-1 AND METHODS OF MODULATING CELL DEATH, CELL DIVISION, CELL DIFFERENTIATION AND METHODS OF TREATING DISORDERS” (priority 2010, published 2015):
# Where two headings read alike, the source gives them in different places.
# What was measured:
# MCL-1ΔNΔC [1] = experiment: High-throughput competitive FP binding screen, FITC-MCL-1 SAHB/MCL-1ΔNΔC interaction
# BCL-XLΔC = BCL-XLΔC (Homo sapiens, UniProt Q07817); experiment: High-throughput competitive FP binding screen, FITC-BAD BH3/BCL-XLΔC interaction
# MCL-1ΔNΔC [2] = molecular target: T1, MCL-1ΔNΔC (Homo sapiens, UniProt Q07820); experiment: High-throughput competitive FP binding screen, FITC-MCL-1 SAHB/MCL-1ΔNΔC interaction; design: the C-terminal alpha-helix was deleted from each of these constructs; GST (N, cleaved yes); made in house
# MCL-1ΔNΔC [3] = molecular target: T1, MCL-1ΔNΔC; conditions: pre-incubation, re-concentration, FP with FITC-BID BH3
# Method: A small sample was taken as a pre-dilution control. Compound-treated protein and unmodified protein were then diluted to a volume of 20 mL, and subsequently re-concentrated to 500 mL using 10K centrifugal filter units (Amicon). FP binding analysis was performed as described above by adding serial dilutions of compound-modified MCL-1 and unmodified MCL-1, both before and after dilution, followed by FITC-BID BH3 (15 nM) to a 96-well black flat bottom plate (Costar). FP measurements and analyses are then performed as described above.
# Briefly, MCL-1ΔNΔC was pre-incubated with the small molecule inhibitors prior to dilution with buffer. The solution was concentrated to its original volume and fluorescence polarization was performed. Compounds that bind covalently will remain bound to the protein, whereas compounds that bind reversibly will be exchanged upon dilution.
# [4] = selectivity for MCL-1ΔNΔC over BCL-XLΔC targeting (BCL-XL % Bound minus MCL-1 % Bound)
# [5] = FITC-BAD BH3/BCL-XLΔC interaction pair, competitive FP screen
# [6] = FITC-MCL-1 SAHB/MCL-1ΔNΔC interaction pair, competitive FP screen
# Sequence of BCL-XLΔC (Q07817 1-212 limits assumed, stated change not applied): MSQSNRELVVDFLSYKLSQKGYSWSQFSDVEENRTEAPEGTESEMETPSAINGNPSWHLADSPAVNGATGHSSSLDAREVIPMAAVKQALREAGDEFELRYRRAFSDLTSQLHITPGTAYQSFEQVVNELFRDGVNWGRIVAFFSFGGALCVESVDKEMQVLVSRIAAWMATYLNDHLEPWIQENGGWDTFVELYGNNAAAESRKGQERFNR
# T1 sequence (Q07820 172-320 limits assumed, stated change not applied): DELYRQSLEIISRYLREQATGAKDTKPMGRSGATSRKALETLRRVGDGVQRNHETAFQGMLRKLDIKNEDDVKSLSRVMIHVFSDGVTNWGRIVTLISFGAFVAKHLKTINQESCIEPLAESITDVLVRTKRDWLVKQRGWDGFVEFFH
SMILES,Spec Values (MCL-1ΔNΔC [1]; [4]),BCL-XL % Bound (BCL-XLΔC; [5]) [%],MCL-1% Bound (MCL-1ΔNΔC [2]; [6]) [%],Spec Values (MCL-1ΔNΔC [1]),BCL-XL % Bound (BCL-XLΔC) [%],MCL-1% Bound (MCL-1ΔNΔC [2]) [%],mechanism of binding to MCL-1ΔNΔC upon dilution (reversible vs covalent) (MCL-1ΔNΔC [3])
O=C(O)c1cccc(-c2ccc(/C=C3\Sc4ccccc4C3=O)o2)c1,64.25,95.42,31.17,–,–,–,–
CCN(CC)c1ccc(C2C(C#N)=C(N)N(c3cccc(C)c3)C3=C2C(=O)CCC3)cc1 (stereo not shown),45.46,98.46,53.01,–,–,–,–
Oc1ccc(C2Oc3ccccc3C3CC(c4ccccc4O)=NN32)cc1 (stereo not shown),45.43,93.42,47.99,–,–,–,–
COC(=O)c1c(N)sc2c1Cc1ccccc1C2,45.24,92.93,47.69,–,–,–,–
CC(C)CSC1=NSC2=NC(=O)/C(=C\c3ccc(SCc4ccco4)o3)C(=N)N12,45.2,82.8,37.61,–,–,–,–
Cc1ccnc(NC(c2ccco2)c2c(C)[nH]c3ccccc23)c1 (stereo not shown),45.19,94.99,49.8,–,–,–,–
Cc1c(Cl)cccc1N1C(=O)CC(Sc2nnnn2-c2ccccc2)C1=O (stereo not shown),45.07,97.5,52.43,–,–,–,–
"O=c1cc(-c2ccccc2)oc2cc(O)c(O)c(O)c12 [Baicailen, reference compound]",93.84,104.2,10.32,–,–,–,–
"CC1=C(O)C(=O)C=C2C1=CC=C1[C@@]2(C)CC[C@@]2(C)[C@@H]3C[C@](C)(C(=O)O)CC[C@]3(C)CC[C@]12C [Celastrol, reference compound]",–,–,–,64.19,97.09,32.9,–
Cc1cc2c(C(C)C)c(O)c(O)c(C=O)c2c(O)c1-c1c(C)cc2c(C(C)C)c(O)c(O)c(C=O)c2c1O [Gossypol],–,–,–,–,–,–,bound reversibly
"Oc1c(Cl)cc(Cl)c(Cl)c1Cc1c(O)c(Cl)cc(Cl)c1Cl [Hexachlorophene, reference compound]",–,–,–,59.35,100.4,41.01,–
"O=c1c(O)c(-c2cc(O)c(O)c(O)c2)oc2cc(O)cc(O)c12 [Myricetin, reference compound]",68.23,102.4,34.13,–,–,–,–
"O=c1c(O)c(-c2ccc(O)c(O)c2)oc2cc(O)cc(O)c12 [Quercetin, reference compound]",88.65,105.3,16.69,–,–,–,–
"O=C(OCC1O[C@H](OC(=O)c2cc(O)c(O)c(OC(=O)c3cc(O)c(O)c(O)c3)c2)[C@H](OC(=O)c2cc(O)c(O)c(OC(=O)c3cc(O)c(O)c(O)c3)c2)[C@@H](OC(=O)c2cc(O)c(O)c(OC(=O)c3cc(O)c(O)c(O)c3)c2)[C@@H]1OC(=O)c1cc(O)c(O)c(OC(=O)c2cc(O)c(O)c(O)c2)c1)c1cc(O)c(O)c(OC(=O)c2cc(O)c(O)c(O)c2)c1 (stereo partly shown) [Tannic Acid, reference compound]",82.32,98.26,15.94,–,–,–,–
"N#C/C(=C\c1ccc(O)c(O)c1)C(N)=S [Tyrphostin 47, reference compound]",–,–,–,66.21,100.8,34.55,–
"Cc1ccc2c(c1)CC[C@H]1C3CC[C@H](NCCCCCCN4C(=O)C=CC4=O)[C@@]3(C)CC[C@H]21 (stereo partly shown) [U73122, reference compound]",49.67,106.3,56.6,–,–,–,–
O=c1c(O)c(-c2cc(O)c(O)c(O)c2)oc2cc(O)cc(O)c12 [drawing 14],68.23,102.4,34.13,–,–,–,–
N#C/C(=C\c1ccc(O)c(O)c1)C(N)=S [drawing 16],–,–,–,66.21,100.8,34.55,–
COc1ccc2c(c1)CC[C@@H]1C2CC[C@@]2(C)C1CC[C@@H]2NCCCCCCN1C(=O)CCC1=O (stereo partly shown) [drawing 18],49.67,106.3,56.6,–,–,–,–
O=c1cc(-c2ccccc2)oc2cc(O)c(O)c(O)c12 [drawing 19],93.84,104.2,10.32,–,–,–,–
O=c1oc2c(O)c(O)cc3c(=O)oc4c(O)c(O)cc1c4c23 [drawing 20],89.32,90.58,1.26,–,–,–,–

SMILES,Spec Values (MCL-1ΔNΔC [1]; [4]),BCL-XL % Bound (BCL-XLΔC; [5]) [%],MCL-1% Bound (MCL-1ΔNΔC [2]; [6]) [%],Spec Values (MCL-1ΔNΔC [1]),BCL-XL % Bound (BCL-XLΔC) [%],MCL-1% Bound (MCL-1ΔNΔC [2]) [%],mechanism of binding to MCL-1ΔNΔC upon dilution (reversible vs covalent) (MCL-1ΔNΔC [3])
Oc1c(Cl)cc(Cl)c(Cl)c1Cc1c(O)c(Cl)cc(Cl)c1Cl [drawing 23],–,–,–,59.35,100.4,41.01,–
O=C(OCC1O[C@H](OC(=O)c2cc(O)c(O)c(OC(=O)c3cc(O)c(O)c(O)c3)c2)[C@H](OC(=O)c2cc(O)c(O)c(OC(=O)c3cc(O)c(O)c(O)c3)c2)[C@@H](OC(=O)c2cc(O)c(O)c(OC(=O)c3cc(O)c(O)c(O)c3)c2)[C@@H]1OC(=O)c1cc(O)c(O)c(OC(=O)c2cc(O)c(O)c(O)c2)c1)c1cc(O)c(O)c(OC(=O)c2cc(O)c(O)c(O)c2)c1 (stereo partly shown) [drawing 25],82.32,98.26,15.94,–,–,–,–
COc1ccc(N(C)C(=S)Nc2ccc3nc(-c4ccco4)c(-c4ccco4)nc3c2)cc1 [drawing 44],72.84,81.17,8.332,–,–,–,–
CC1=NOC(=O)/C1=C/c1ccc(-c2ccc(Cl)cc2)o1 [drawing 53],–,–,–,65.98,101.5,38.47,–
CC1=C(C#N)C(=O)N=C(O)/C1=C\c1ccc(-c2ccc(S(N)(=O)=O)cc2)o1 [drawing 84],76.4,98.2,21.8,–,–,–,–
O=C1NC(=O)N(CCC2=CCCCC2)C(=O)/C1=C/c1cnc(-c2ccccc2)nc1 [drawing 98],–,–,–,63.4,106.9,43.51,–
CCOc1cc(C(Nc2cccnc2)c2ccc3cccnc3c2O)ccc1O (stereo not shown) [drawing 145],108.7,108.4,−0.3,–,–,–,–
Cc1cc2c(C(C)C)c(O)c(O)c(C=O)c2c(O)c1-c1c(C)cc2c(C(C)C)c(O)c(O)c(C=O)c2c1O [drawing 158],–,–,–,97.07,101,3.955,–
O=c1cc(-c2ccccc2)oc2cc(O)c(O)c(O)c12 [drawing 161],93.84,104.2,10.32,–,–,–,–
O=c1c(O)c(-c2ccc(O)c(O)c2)oc2cc(O)cc(O)c12 [drawing 167],88.65,105.3,16.69,–,–,–,–
O=c1c(O)c(-c2ccc(O)c(O)c2)oc2cc(O)cc(O)c12 [drawing 172],83.25,92.49,9.24,–,–,–,–
O=C(OCC1O[C@H](OC(=O)c2cc(O)c(O)c(OC(=O)c3cc(O)c(O)c(O)c3)c2)[C@H](OC(=O)c2cc(O)c(O)c(OC(=O)c3cc(O)c(O)c(O)c3)c2)[C@@H](OC(=O)c2cc(O)c(O)c(OC(=O)c3cc(O)c(O)c(O)c3)c2)[C@@H]1OC(=O)c1cc(O)c(O)c(OC(=O)c2cc(O)c(O)c(O)c2)c1)c1cc(O)c(O)c(OC(=O)c2cc(O)c(O)c(O)c2)c1 (stereo partly shown) [drawing 178],82.32,98.26,15.94,–,–,–,–
CC1=C(C#N)C(=O)N=C(O)/C1=C\c1ccc(-c2ccc(S(N)(=O)=O)cc2)o1 [drawing 191],76.4,98.2,21.8,–,–,–,–
CC1=C(C#N)C(=O)N=C(O)/C1=C\c1ccc(-c2ccc(S(N)(=O)=O)cc2)o1 [drawing 192],76.4,93.7,17.4,–,–,–,–
COc1ccc(N(C)C(=S)Nc2ccc3nc(-c4ccco4)c(-c4ccco4)nc3c2)cc1 [drawing 205],72.84,81.17,8.322,–,–,–,–
O=c1c(O)c(-c2cc(O)c(O)c(O)c2)oc2cc(O)cc(O)c12 [drawing 222],68.23,102.4,34.13,–,–,–,–
N#C/C(=C\c1ccc(O)c(O)c1)C(N)=S [drawing 231],–,–,–,66.21,100.8,34.55,–
O=C1NC(=O)N(CCC2=CCCCC2)C(=O)/C1=C/c1cnc(-c2ccccc2)nc1 [drawing 249],–,–,–,63.4,106.9,43.51,–
CC1=NOC(=O)/C1=C/c1ccc(-c2ccc(Cl)cc2)o1 [drawing 255],–,–,–,62.98,101.5,38.47,–
Oc1c(Cl)cc(Cl)c(Cl)c1Cc1c(O)c(Cl)cc(Cl)c1Cl [drawing 274],–,–,–,59.35,100.4,41.01,–
COc1ccc2c(c1)CC[C@@H]1C2CC[C@@]2(C)C1CC[C@@H]2NCCCCCCN1C(=O)CCC1=O (stereo partly shown) [drawing 365],49.67,106.3,56.6,–,–,–,–
